{"source": "paper doi:10.1101/2025.07.18.665579v1", "about": "(biorxiv, 2025)", "assay_in_all_cases": "microscale thermophoresis", "type_in_all_cases": "binding", "key": {"SbXXT (Sb2G401600) [1]": {"target": "T1, SbXXT (Sb2G401600) (Sorghum bicolor, UniProt C5X460)", "T1 sequence (C5X460 93-554)": "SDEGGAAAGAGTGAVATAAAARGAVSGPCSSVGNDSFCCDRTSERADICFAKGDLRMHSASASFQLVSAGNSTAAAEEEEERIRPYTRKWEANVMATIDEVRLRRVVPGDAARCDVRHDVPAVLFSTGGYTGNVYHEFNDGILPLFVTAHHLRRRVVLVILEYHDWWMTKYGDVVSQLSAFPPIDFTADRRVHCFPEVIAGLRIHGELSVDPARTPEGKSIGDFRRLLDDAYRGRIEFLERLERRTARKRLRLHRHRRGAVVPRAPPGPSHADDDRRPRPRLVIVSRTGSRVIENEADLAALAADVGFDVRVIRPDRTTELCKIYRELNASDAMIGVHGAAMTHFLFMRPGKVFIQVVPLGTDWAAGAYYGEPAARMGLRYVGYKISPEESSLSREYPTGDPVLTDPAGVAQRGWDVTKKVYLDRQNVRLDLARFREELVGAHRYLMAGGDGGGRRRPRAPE"}, "SbXXT (Sb2G401600) [2]": {"target": "T2, SbXXT (Sb2G401600) (Sorghum bicolor, UniProt C5X460, Y462F)", "T2 sequence (C5X460 93-554 Y462F)": "T1 sequence (C5X460 93-554) with Y370F"}, "SbXAT (Sb3G094600) [3]": {"target": "SbXAT (Sb3G094600) (Sorghum bicolor, UniProt A0A1B6Q2C2)", "sequence (A0A1B6Q2C2 198-685)": "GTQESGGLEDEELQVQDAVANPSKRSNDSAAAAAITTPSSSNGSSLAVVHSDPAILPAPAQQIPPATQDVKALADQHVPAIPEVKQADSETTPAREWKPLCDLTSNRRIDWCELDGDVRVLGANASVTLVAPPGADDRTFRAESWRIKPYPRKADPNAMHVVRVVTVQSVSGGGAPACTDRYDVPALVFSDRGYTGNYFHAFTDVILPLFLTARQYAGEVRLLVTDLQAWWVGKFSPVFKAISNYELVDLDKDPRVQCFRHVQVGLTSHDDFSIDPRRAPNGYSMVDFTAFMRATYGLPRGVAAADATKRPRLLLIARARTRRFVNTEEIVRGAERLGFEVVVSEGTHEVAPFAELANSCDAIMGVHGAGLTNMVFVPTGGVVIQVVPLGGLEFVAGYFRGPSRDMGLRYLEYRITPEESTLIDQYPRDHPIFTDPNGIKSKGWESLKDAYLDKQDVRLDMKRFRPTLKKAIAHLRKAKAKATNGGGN"}, "SbXAT (Sb3G094600) [4]": {"target": "SbXAT (Sb3G094600) (Sorghum bicolor, UniProt A0A1B6Q2C2, F596Y)", "sequence (A0A1B6Q2C2 198-685 F596Y)": "as the sequence (A0A1B6Q2C2 198-685) above, with F399Y counted along it"}}, "note": "Where a chain is given by its changes, count along the chain named."}
{"smiles": "O=c1ccn([C@@H]2O[C@H](COP(=O)(O)OP(=O)(O)O[C@H]3O[C@@H](CO)[C@H](O)[C@H]3O)[C@@H](O)[C@H]2O)c(=O)[nH]1", "note": "[UDP-Araf]", "values": [{"measurement": "Kd", "setting": "SbXXT (Sb2G401600) [1]", "result": 26, "unit": "µM"}, {"measurement": "Kd", "setting": "SbXXT (Sb2G401600) [2]", "result": 19, "unit": "µM"}, {"measurement": "Kd", "setting": "SbXAT (Sb3G094600) [3]", "result": 244, "unit": "µM"}, {"measurement": "Kd", "setting": "SbXAT (Sb3G094600) [4]", "result": 531, "unit": "µM"}]}
{"smiles": "O=c1ccn([C@@H]2O[C@H](COP(=O)(O)OP(=O)(O)O[C@H]3OC[C@@H](O)[C@H](O)[C@H]3O)[C@@H](O)[C@H]2O)c(=O)[nH]1", "note": "[UDP-Xyl]", "values": [{"measurement": "Kd", "setting": "SbXXT (Sb2G401600) [1]", "result": 13, "unit": "µM"}, {"measurement": "Kd", "setting": "SbXXT (Sb2G401600) [2]", "result": 15, "unit": "µM"}, {"measurement": "Kd", "setting": "SbXAT (Sb3G094600) [3]", "result": 373, "unit": "µM"}, {"measurement": "Kd", "setting": "SbXAT (Sb3G094600) [4]", "result": 221, "unit": "µM"}]}
